Reference: paper PMC7413254 (Nature Communications, 2020)
Where two headings read alike, the source gives them in different places.

What was measured:
PfNT1 = target: T1, PfNT1 (Plasmodium falciparum, UniProt Q8IDM6); assay: cell-based; type: cell-based; conditions: PfNT1 oocytes, total [3H]CQ transport, normalised to the oocyte type control
T1 construct: expressed in transfected cells; host or cells: Xenopus laevis oocytes (stage V-VI), cRNA-injected
In short: (§1)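 Oocytes (ten per treatment, ≥4 independent frogs/days) were preloaded by injecting VF-6 in 25 nL ND96 at pH 5.0, 5.5, 6.0 or 7.0, or Na^+-free choline buffer, then uptake run 1.5 h, 27.5 °C, ND96 pH 5.5 by default. Internal concentrations assumed ~400 nL oocyte volume.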

PfCRT^Ecu1110 [1] = target: T2, PfCRT^Ecu1110 (Plasmodium falciparum, UniProt Q9N623, A220S/I356L/K76T/N326D); assay: cell-based; type: cell-based; conditions: for Uptake of [3H]CQ (% PfCRTEcu1110 control), trans-stimulation / PfCRT-mediated [3H]CQ transport, trans-stimulation (% PfCRTEcu1110 control): PfCRTEcu1110 oocytes; for Uptake of [3H]CQ (% PfCRTEcu1110 control), trans-stimulation: total [3H]CQ transport, normalised to the oocyte type control; for PfCRT-mediated [3H]CQ transport, trans-stimulation (% PfCRTEcu1110 control): normalised to oocyte type control; for [3H]CQ transport (% PfCRTDd2 control), trans-stimulation, PfCRTEcu1110: PfCRT-mediated component (background subtracted), sheet title says normalised to PfCRTDd2 control, mean ± SEM, SEM
T2 sequence (Q9N623 whole entry A220S/I356L/K76T/N326D): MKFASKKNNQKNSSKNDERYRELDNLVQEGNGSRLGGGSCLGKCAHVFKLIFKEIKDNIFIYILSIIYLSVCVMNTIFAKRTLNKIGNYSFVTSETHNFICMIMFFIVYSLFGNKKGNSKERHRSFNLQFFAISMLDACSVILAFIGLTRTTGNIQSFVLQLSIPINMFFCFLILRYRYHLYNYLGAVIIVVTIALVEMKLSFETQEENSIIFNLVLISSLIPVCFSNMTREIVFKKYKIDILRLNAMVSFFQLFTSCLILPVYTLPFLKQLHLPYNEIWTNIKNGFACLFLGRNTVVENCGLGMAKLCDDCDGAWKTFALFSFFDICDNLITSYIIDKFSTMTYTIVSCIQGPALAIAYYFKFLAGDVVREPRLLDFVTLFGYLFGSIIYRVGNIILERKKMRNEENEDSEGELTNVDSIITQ
In short: as §1

PfCRT^Dd2 [2] = target: T3, PfCRT^Dd2 (Plasmodium falciparum, UniProt Q9N623, A220S/I356T/K76T/M74I/N326S/N75E/Q271E/R371I); assay: cell-based; type: cell-based; conditions: for Uptake of [3H]CQ (% PfCRTDd2 control), trans-stimulation / PfCRT-mediated [3H]CQ transport, trans-stimulation (% PfCRTDd2 control): PfCRTDd2 oocytes; for Uptake of [3H]CQ (% PfCRTDd2 control), trans-stimulation: total [3H]CQ transport, normalised to the oocyte type control; for PfCRT-mediated [3H]CQ transport, trans-stimulation (% PfCRTDd2 control): normalised to oocyte type control; for [3H]CQ transport (% PfCRTDd2 control), trans-stimulation, PfCRTDd2: PfCRT-mediated component (background subtracted), mean ± SEM, SEM
T3 sequence (Q9N623 whole entry A220S/I356T/K76T/M74I/N326S/N75E/Q271E/R371I): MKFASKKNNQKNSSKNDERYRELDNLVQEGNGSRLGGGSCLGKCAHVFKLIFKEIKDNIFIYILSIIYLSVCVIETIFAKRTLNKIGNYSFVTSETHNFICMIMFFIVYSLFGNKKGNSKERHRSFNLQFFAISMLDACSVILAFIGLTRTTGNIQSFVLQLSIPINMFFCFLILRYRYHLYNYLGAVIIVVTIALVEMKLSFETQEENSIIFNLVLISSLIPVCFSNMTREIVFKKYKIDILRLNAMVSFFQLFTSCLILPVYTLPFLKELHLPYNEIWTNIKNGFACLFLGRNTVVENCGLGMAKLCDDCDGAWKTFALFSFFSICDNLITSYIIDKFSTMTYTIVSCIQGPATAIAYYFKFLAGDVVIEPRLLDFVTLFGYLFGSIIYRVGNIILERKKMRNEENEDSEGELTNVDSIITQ
In short: as §1

PfCRT^3D7 [3] = target: T4, PfCRT^3D7 (Plasmodium falciparum, UniProt Q8IBZ9); assay: cell-based; type: cell-based; conditions: PfCRT3D7 oocytes; for Uptake of [3H]CQ (% PfCRT3D7 control), trans-stimulation: total [3H]CQ transport, normalised to the oocyte type control; for PfCRT-mediated [3H]CQ transport, trans-stimulation (% PfCRT3D7 control): normalised to oocyte type control
T4 sequence (Q8IBZ9 59-398): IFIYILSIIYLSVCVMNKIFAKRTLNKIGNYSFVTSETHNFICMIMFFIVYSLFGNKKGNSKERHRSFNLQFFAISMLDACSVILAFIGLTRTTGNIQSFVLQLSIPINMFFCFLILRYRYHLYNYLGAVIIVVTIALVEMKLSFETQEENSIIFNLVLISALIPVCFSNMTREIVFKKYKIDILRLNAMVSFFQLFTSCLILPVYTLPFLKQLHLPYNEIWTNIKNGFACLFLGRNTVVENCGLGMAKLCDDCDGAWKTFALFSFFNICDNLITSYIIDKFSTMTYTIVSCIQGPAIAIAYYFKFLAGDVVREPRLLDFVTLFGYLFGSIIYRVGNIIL
In short: as §1

non-expressing oocytes [4] = type: cell-based, Xenopus laevis; conditions: non-expressing oocytes, total [3H]CQ transport, normalised to the oocyte type control
In short: as §1

PfCRT^3D7 [5] = target: T4, PfCRT^3D7; assay: cell-based; type: cell-based; conditions: PfCRT3D7 oocytes, total [3H]CQ transport, normalised to the oocyte type control
Excerpt: (§2) The orientation of PfCRT in the parasite’s DV membrane, and also in the oocyte plasma membrane, is such that its N- and C-termini extend into the cytosol. The oocytes were suspended in a reaction buffer adjusted to pH 5.5 to mimic the pH of the DV lumen[1],[2]. In this scenario, the transport of a substrate via PfCRT from the acidic extracellular solution into the oocyte cytosol[15] is analogous to the parasite’s PfCRT-mediated efflux of a substrate from the acidic DV and into the cytosol. Unless specified otherwise, this is the direction in which substrate transport was measured in the oocyte assays.
(§3) Unless specified otherwise, the transport assays were conducted over 1.5 h at 27.5 °C and the reaction buffer was ND96 (96 mM NaCl, 2 mM KCl, 1 mM MgCl2, 1.8 mM CaCl2, 10 mM MES and 10 mM Tris-base) at pH 5.5.
(§4) Ten oocytes were washed twice with the relevant ND96 buffer. […] The assay was terminated by removing the reaction buffer and washing the oocytes with ice-cold ND96 buffer. The oocytes were lysed in 10% (w/v) sodium dodecyl sulfate (SDS) and the radioactivity accumulated within each oocyte was measured with a MicroBeta^2 microplate liquid scintillation analyser (PerkinElmer).
(§5) At least four independent experiments were performed (on different days and using oocytes from different frogs), and within each experiment measurements were made from ten oocytes per treatment.

PfCRT^Ecu1110 [6] = target: T2, PfCRT^Ecu1110; assay: [3H]CQ uptake into Xenopus oocytes, cis-inhibition by unlabelled solute; type: cell-based; conditions: for Uptake of [3H]CQ (% PfCRTEcu1110 control), cis-inhibition / PfCRT-mediated [3H]CQ transport, cis-inhibition (% PfCRTEcu1110 control): PfCRTEcu1110 oocytes; for Uptake of [3H]CQ (% PfCRTEcu1110 control), cis-inhibition: total [3H]CQ transport, normalised to the oocyte type control; for PfCRT-mediated [3H]CQ transport, cis-inhibition (% PfCRTEcu1110 control): background [3H]CQ accumulation subtracted, normalised to oocyte type control
In short: (§6)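 ND96, pH 5.5, 1.5 h, 27.5 °C; uptake direction acidic outside → oocyte cytosol, mimicking efflux from digestive vacuole. Ice-cold wash stop, 10% SDS lysis, scintillation counting. Ten oocytes/treatment, ≥4 independent experiments.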

PfCRT^Dd2 [7] = target: T3, PfCRT^Dd2; assay: as above; type: cell-based; conditions: PfCRTDd2 oocytes, background [3H]CQ accumulation subtracted, normalised to oocyte type control
In short: as §6

non-expressing oocytes [8] = assay: cells; type: cell-based, Xenopus laevis; conditions: non-expressing oocytes, total [3H]CQ transport, normalised to the oocyte type control
Excerpt: as §2, §3, §4, §5

[9] = [test solute]i = 45 mM (30 mM for some solutes due to solubility)
[10] = [test solute]i = 5 mM (intracellular)
[11] = [test solute]i = 45 mM (intracellular; 30 mM for some solutes due to solubility)
[12] = [test solute]i = 5 mM (injected)

T1 sequence (Q8IDM6 whole entry): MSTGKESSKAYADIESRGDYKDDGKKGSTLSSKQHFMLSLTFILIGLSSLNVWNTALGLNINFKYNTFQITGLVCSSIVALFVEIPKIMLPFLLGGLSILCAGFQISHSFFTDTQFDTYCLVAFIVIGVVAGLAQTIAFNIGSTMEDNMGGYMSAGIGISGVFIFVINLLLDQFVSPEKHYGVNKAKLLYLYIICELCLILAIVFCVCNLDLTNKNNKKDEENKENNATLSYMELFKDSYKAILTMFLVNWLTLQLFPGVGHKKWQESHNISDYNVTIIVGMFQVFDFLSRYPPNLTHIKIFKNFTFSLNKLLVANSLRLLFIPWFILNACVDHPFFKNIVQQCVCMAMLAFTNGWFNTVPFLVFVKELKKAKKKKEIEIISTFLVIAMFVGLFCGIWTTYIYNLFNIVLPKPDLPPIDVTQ

PPVQ [PQ-4]
Uptake of [3H]CQ (% PfNT1 control), trans-stimulation (PfNT1; [test solute]i = 5 mM): 100 ± 2.5 % PfNT1 control
Uptake of [3H]CQ (% PfNT1 control), trans-stimulation (PfNT1; [9]): 99 ± 3.2 % PfNT1 control
Uptake of [3H]CQ (% PfCRTEcu1110 control), trans-stimulation (PfCRT^Ecu1110 [1]; [test solute]i = 5 mM): 124 ± 2.9 % PfCRTEcu1110 control
Uptake of [3H]CQ (% PfCRTEcu1110 control), trans-stimulation (PfCRT^Ecu1110 [1]; [9]): 138 ± 3.2 % PfCRTEcu1110 control
PfCRT-mediated [3H]CQ transport, trans-stimulation (% PfCRTEcu1110 control) (PfCRT^Ecu1110 [1]; [10]): 120 ± 3.2 % PfCRTEcu1110 control
PfCRT-mediated [3H]CQ transport, trans-stimulation (% PfCRTEcu1110 control) (PfCRT^Ecu1110 [1]; [11]): 132 ± 1.1 % PfCRTEcu1110 control
[3H]CQ transport (% PfCRTDd2 control), trans-stimulation, PfCRTEcu1110 (PfCRT^Ecu1110 [1]; [12]): 36 ± 1.3 % PfCRTEcu1110 control
[3H]CQ transport (% PfCRTDd2 control), trans-stimulation, PfCRTEcu1110 (PfCRT^Ecu1110 [1]; [9]): 40 ± 1.3 % PfCRTEcu1110 control
Uptake of [3H]CQ (% PfCRTDd2 control), trans-stimulation (PfCRT^Dd2 [2]; [test solute]i = 5 mM): 100 ± 3.2 % PfCRTDd2 control
Uptake of [3H]CQ (% PfCRTDd2 control), trans-stimulation (PfCRT^Dd2 [2]; [9]): 115 ± 2.9 % PfCRTDd2 control
PfCRT-mediated [3H]CQ transport, trans-stimulation (% PfCRTDd2 control) (PfCRT^Dd2 [2]; [10]): 98 ± 4.2 % PfCRTDd2 control
PfCRT-mediated [3H]CQ transport, trans-stimulation (% PfCRTDd2 control) (PfCRT^Dd2 [2]; [11]): 110 ± 1.1 % PfCRTDd2 control
[3H]CQ transport (% PfCRTDd2 control), trans-stimulation, PfCRTDd2 (PfCRT^Dd2 [2]; [12]): 98 ± 4.2 % PfCRTDd2 control
[3H]CQ transport (% PfCRTDd2 control), trans-stimulation, PfCRTDd2 (PfCRT^Dd2 [2]; [9]): 110 ± 1.1 % PfCRTDd2 control
Uptake of [3H]CQ (% PfCRT3D7 control), trans-stimulation (PfCRT^3D7 [3]; [test solute]i = 5 mM): 134 ± 2.5 % PfCRT3D7 control
Uptake of [3H]CQ (% PfCRT3D7 control), trans-stimulation (PfCRT^3D7 [3]; [9]): 165 ± 4.2 % PfCRT3D7 control
PfCRT-mediated [3H]CQ transport, trans-stimulation (% PfCRT3D7 control) (PfCRT^3D7 [3]; [10]): 129 ± 2.1 % PfCRT3D7 control
PfCRT-mediated [3H]CQ transport, trans-stimulation (% PfCRT3D7 control) (PfCRT^3D7 [3]; [11]): 159 ± 5.2 % PfCRT3D7 control
Uptake of [3H]CQ (% non-expressing oocyte control), trans-stimulation (non-expressing oocytes [4]; [test solute]i = 5 mM): 99 ± 3.4 % non-expressing oocyte control
Uptake of [3H]CQ (% non-expressing oocyte control), trans-stimulation (non-expressing oocytes [4]; [9]): 100 ± 2.7 % non-expressing oocyte control
Uptake of [3H]CQ (% PfCRT3D7 control), cis-inhibition (PfCRT^3D7 [5]; [test solute] = 0.5 mM): 99 ± 3.9 % PfCRT3D7 control
Uptake of [3H]CQ (% PfCRT3D7 control), cis-inhibition (PfCRT^3D7 [5]; [test solute] = 1 mM): 99 ± 6.3 % PfCRT3D7 control
Uptake of [3H]CQ (% PfCRT3D7 control), cis-inhibition (PfCRT^3D7 [5]; [test solute] = 2 mM): 99 ± 5.3 % PfCRT3D7 control
Uptake of [3H]CQ (% PfCRTEcu1110 control), cis-inhibition (PfCRT^Ecu1110 [6]; [test solute] = 0.5 mM): 67 ± 2.1 % PfCRTEcu1110 control
Uptake of [3H]CQ (% PfCRTEcu1110 control), cis-inhibition (PfCRT^Ecu1110 [6]; [test solute] = 1 mM): 56 ± 2.8 % PfCRTEcu1110 control
Uptake of [3H]CQ (% PfCRTEcu1110 control), cis-inhibition (PfCRT^Ecu1110 [6]; [test solute] = 2 mM): 48 ± 4.8 % PfCRTEcu1110 control
PfCRT-mediated [3H]CQ transport, cis-inhibition (% PfCRTEcu1110 control) (PfCRT^Ecu1110 [6]; [test solute] = 0.5 mM): 61 ± 3.1 % PfCRTEcu1110 control
PfCRT-mediated [3H]CQ transport, cis-inhibition (% PfCRTEcu1110 control) (PfCRT^Ecu1110 [6]; [test solute] = 1 mM): 51 ± 1.3 % PfCRTEcu1110 control
PfCRT-mediated [3H]CQ transport, cis-inhibition (% PfCRTEcu1110 control) (PfCRT^Ecu1110 [6]; [test solute] = 2 mM): 41 ± 3.2 % PfCRTEcu1110 control
[3H]CQ transport (% PfCRTEcu1110 control), cis-inhibition, PfCRTEcu1110 (PfCRT^Ecu1110 [6]; cis-inhibition, [test solute] = 2 mM, PfCRT-mediated component (background subtracted), sheet title says normalised to PfCRTDd2 control, mean ± SEM, SEM): 13 ± 0.6 % PfCRTEcu1110 control
PfCRT-mediated [3H]CQ transport, cis-inhibition (% PfCRTDd2 control) (PfCRT^Dd2 [7]; [test solute] = 0.5 mM): 68 ± 3.7 % PfCRTDd2 control
PfCRT-mediated [3H]CQ transport, cis-inhibition (% PfCRTDd2 control) (PfCRT^Dd2 [7]; [test solute] = 1 mM): 59 ± 2.1 % PfCRTDd2 control
PfCRT-mediated [3H]CQ transport, cis-inhibition (% PfCRTDd2 control) (PfCRT^Dd2 [7]; [test solute] = 2 mM): 37 ± 2.0 % PfCRTDd2 control
Uptake of [3H]CQ (% non-expressing oocyte control), cis-inhibition (non-expressing oocytes [8]; [test solute] = 1 mM): 99 ± 5.3 % non-expressing oocyte control
Uptake of [3H]CQ (% non-expressing oocyte control), cis-inhibition (non-expressing oocytes [8]; [test solute] = 2 mM): 100 ± 3.7 % non-expressing oocyte control
